Experimental data published in patent US20200062738A1, “ANTI-CANCER STEMNESS DRUGS” (Development Center for Biotechnology, priority 2017, published 2020).

Tests used:
H1975-luc cells [1] = experiment: Orthotopic H1975-luc model, treatment starting 2 days after tumor implantation (FIG. 4); assay type: in vivo, mice; details: for tumor-free rate: 3 mpk IV, 5 times/week
Excerpt: (§1) Mice were orthotopically implanted with H1975-luc cells (10^6 cells/mouse). On day 0 (defined as 2 days after tumor implantation), mice were given drug treatments for 4 weeks (5 times/week), and the tumor formations were followed by non-invasive imaging on days 14 and 28.
(§2) The mouse cancer models were generated as described above. Orthotopic H1975-Luc model was described as previous study. BI-44 was administrated by IV injection through tail vein, 5 times/7 days, with the doses indicated on the figure. Gefitinib and Afatinib were administrated orally, 5 times/7 days, with the dose of 20 mpk (mg/Kg).
as §1, with “In the first animal model, Mice” for “Mice”, “were started to receive” for “were given”, “on day” for “on days”
BI-44 was administrated starting 2 days after orthotopic lung tumor implantation according to the administration scheme shown in FIG. 4A, and the tumor formations were evaluated via non-invasive bioluminescent imaging on days 14 and 28.

MCL-1 = MCL-1 protein expression by western blot in H1975 cells; assay type: cell-based, human; details: for MCL-1 protein expression: 10 μM, 6 h, western blot; for inhibition of MCL-1 expression, dose dependence: different concentrations, western blot (#44: 6 h)
Description: (§3) The abilities of compounds of the invention to inhibit BMI-1/MCl-1 expressions were assayed with cell cultures. BMI-1 and MCL-1 are overexpressed in many cancers, such as lung cancer cell line H1975. Therefore, cancer cells that overexpress BMI-1/MCL-1 provide a convenient platform for assaying BMI-1/MCL-1 inhibition.
(§4) After drug treatments, cells were washed twice with PBS, scraped, and resuspended in RIPA buffer containing protease inhibitors (20 mM Tris-HCl pH 7.5, 150 mM NaCl, 1 mM Na2EDTA, 1 mM EGTA, 1% NP-40, 1% sodium deoxycholate, 2.5 mM sodium pyrophosphate, 1 mM b-glycerophosphate, 1 mM Na3VO4, 1 μg/ml leupeptin). Cell lysate was sonicated for 5-10 min, and centrifuged at 14000 rpm for 20 minutes at 4° C. The supernatant was collected, determined for protein concentrations, and stored at −80° C. before further use.
(§5) BMI-1/MCL-1 expression levels may be assessed with western blot analysis. […] The denatured protein samples were then loaded in 10% Tris-Glycine SDS polyacrylamide gel for separating proteins. The power supply for the running condition was set at 80 V for running stacking gel and 100 V for separating gel, respectively. […] The power supply for the transfer condition was set at 300 mA, and the transfer was carried out on ice for 2.5 hours. The nitrocellulose membranes containing the denatured proteins were blocked with a solution containing 5% skim milk at room temperature for 1 hour.
In addition, the membranes were also probed with antibodies against MCL-1 and tubulin. Tubulin functions as an internal control to assess the relative loadings in different lanes on the gel. Myeloid cell leukemia 1 (MCL1) is a pro-survival protein overexpressed in many cancers.

BMI-1 = BMI-1 protein expression by western blot in H1975 cells; assay type: cell-based, human; details: for BMI-1 protein expression: 10 μM, 6 h, western blot; for inhibition of BMI-1 expression, dose dependence: different concentrations, western blot (#44: 6 h)
Description: as §3, §4, §5
After blocking, the membranes were washed with TBS containing 0.1% Tween-20 (TBST) for 5 minutes. […] After washing with TBST (5 min×3), the membranes were incubated with the secondary antibody (HRP-conjugated anti-mouse IgG, Jackson ImmunoReserch LABORATORIES INC., 1:5000) at room temperature for 1 hour. After washing with TBST (5 min×5), the membranes were incubated with chemiluminescence regent for 1 minute and imaged with a Bioluminiscent imaging system (Biospectrum-AC w/Bio Chemi Camera, UVP).

H1975-luc cells [2] = experiment: Orthotopic H1975-Luc model, treatment starting 3 weeks after tumor implantation (FIG. 5); assay type: in vivo, mice; details: for tumor inhibition rate: day 21
Excerpt: (§6) Mice were orthotopically implanted with H1975-luc cells (10^6 cells/mouse). On day 0 (defined as 3 weeks after tumor implantation), mice were imaged and started to receive drug treatments for 3 weeks (5 times/week). The tumor growths were followed by non-invasive imaging weekly.
as §2
as §6, with “In the second model, BI-44 was administrated starting 3 weeks after tumor implantation (FIG. 5A) when all the mice contained defined luciferase signals in lungs. Then, tumor growths were followed for 3 weeks (FIG. 5A). Mice” for “Mice”, “H1975-Luc” for “H1975-luc”

H1975-Luc cells [3] = experiment: In vivo anti-tumor test, orthotopic H1975-Luc mouse tumor model (FIG. 3); design: species or system SCID mice; details: 1 mpk IV tail vein, 5 times/7 days, 3 weeks
Excerpt: Mice were orthotopically implanted with H1975-luc cells (10^6 cells/mouse), and started to receive drug treatments for 3 weeks. The tumor growths were followed by non-invasive bioluminescent imaging, and quantified. […] Tarceva ([…]) was administrated orally (20 mpk, 5 times/7 days). N=5 to 7 for each group.
The derivatives showing potent anti-BMI-1/MCL-1 effects, such as compounds #43-45 (BI-43-BI-45), were selected for further in vivo anti-tumor test. The in vivo mouse tumor model was established as described below. • 1. SCID mice (70 mice, about […]) were quarantined for one week before lung cancer cells are implanted into their chest cavities. • 2. Before implanting the cancer cells into the mouse chest cavities, the mice were anesthetized with gas anesthesia. The mice were placed in a transparent acrylic box of 20 cm×10 cm×10 cm, which was connected with a flexible tubing to an anesthesia machine and an oxygen tank. Then, an appropriate amount of anesthesia (Isoflurane) was introduced into the anesthesia machine and the valve is open. […] One week after intra-thoracic implant of cancer cells, a luminescence reagent (D-luciferin) was injected into the abdominal cavities of the mice. […]
After establishment of the tumors in mice, the test compounds were administered at the indicated doses and the tumor sizes were monitored using bioluminescence. […]

CN(C)C/C=C/C(=O)Nc1cc2c(Nc3ccc(F)c(Cl)c3)ncnc2cc1O[C@H]1CCOC1 [Afatinib, reference compound]
tumor inhibition rate as compared to control (H1975-luc cells [1]; Afatinib 20 mpk orally, day 28): around 80%

COc1cc(Br)c(Nc2nc(-c3c(C)nc4ncccn34)cs2)c(Br)c1 [Compound 43]
MCL-1 protein expression (MCL-1): significantly reduced | BMI-1 protein expression (BMI-1): significantly reduced

CCc1ccc(C(=O)Nc2cccc(-c3cccc4cc[nH]c34)c2)cc1 [Compound 44, N-(3-(1H-indol-7-yl)phenyl)-4-ethylbenzamide]
tumor inhibition rate (H1975-luc cells [2]; 3 mpk IV): around 90% | tumor inhibition rate (H1975-luc cells [2]; 9 mpk IV): around 90% | tumor growth inhibition (H1975-luc cells [2]; IV 5 times/week for 3 weeks, 1, 3, 9 mpk): significantly inhibited tumor growth in a dose-dependent manner | MCL-1 protein expression (MCL-1): significantly reduced | inhibition of MCL-1 expression, dose dependence (MCL-1): inhibits the expressions of BMI-1 and MCL-1 in a dose-dependent manner | inhibition of MCL-1 expression, dose dependence (MCL-1; listed as #44): effectively inhibited the expressions of BMI-1 and MCL-1 at sub-μM concentrations | BMI-1 protein expression (BMI-1): significantly reduced | inhibition of BMI-1 expression, dose dependence (BMI-1): inhibits the expressions of BMI-1 and MCL-1 in a dose-dependent manner | inhibition of BMI-1 expression, dose dependence (BMI-1; listed as #44): effectively inhibited the expressions of BMI-1 and MCL-1 at sub-μM concentrations | tumor-free rate (H1975-luc cells [1]; day 14): 62.5% | tumor-free rate (H1975-luc cells [1]; day 28): 37.5% | tumor inhibition rate as compared to control (H1975-luc cells [1]; BI-44 3 mpk IV, day 28): around 80% | bioluminescent intensities in mice lungs (H1975-luc cells [1]; BI-44 3 mpk IV, days 14 and 28): significantly reduced bioluminescent intensities | anti-tumor growth effects (bioluminescence) (H1975-Luc cells [3]): most significant anti-tumor growth effects

O=C(Nc1cccc(Cl)c1)Nc1cccc(-c2cccc3cc[nH]c23)c1 [Compound 45]
MCL-1 protein expression (MCL-1): significantly reduced | BMI-1 protein expression (BMI-1): significantly reduced
